Results: US20200231638A1, “STABILIZED ANTI-MICROBIAL PEPTIDES” (priority 2015, published 2020)
Bridge positions count the residues as written; N and C are the ends. Square brackets hold non-standard residues; d marks the D form. Peptide text beside a SMILES is read from it. R8 = C=CCCCCCC[C@@](C)(N)C(=O)O; S5 = C=CCCC[C@](C)(N)C(=O)O; Nle = CCCC[C@H](N)C(=O)O

Tests used:
E. coli = type: cell-based, Escherichia coli
Summary of the method: (§1)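 Broth microdilution in anion-exchange-refined Mueller-Hinton broth; serially diluted peptide mixed with bacteria at 5×10^5 CFU/ml final inoculum. Incubated 20-24 hours at 37° C. MIC taken as lowest peptide concentration with no visible growth.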

B. cereus = type: cell-based, Bacillus cereus
Summary of the method: as §1

S. aureus = type: cell-based, Staphylococcus aureus
Summary of the method: as §1

P. aeruginosa = type: cell-based, Pseudomonas aeruginosa
Summary of the method: as §1

human red blood cells = type: cell-based; conditions: for % Hemolysis at 25 μg/ml: red cells of human, 1 h
Summary of the method: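 Washed human RBCs as 1% (v/v) suspension in phosphate-buffered saline incubated 1 h at 37° C with serially diluted peptides. Hemoglobin release in supernatant measured spectrophotometrically (570 nm), % hemolysis relative to untreated and 1% Triton-X100 controls; MHC defined as concentration giving less than 1% release.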

Row | MIC E. coli (E. coli) | MIC B. cereus (B. cereus) | MIC S. aureus (S. aureus) | MIC P. aeruginosa (P. aeruginosa) | SMILES | % Hemolysis at 25 μg/ml (human red blood cells) | hemolytic activity at concentrations 8-fold higher than its MIC (human red blood cells)
1 | 6.2 µg/mL | 12.5 µg/mL | 50 µg/mL | >50 µg/mL | CCCC[C@H](NC(=O)[C@]1(C)CCCC=CCCC[C@](C)(NC(=O)[C@H](C)NC(=O)[C@H](CCCCN)NC(=O)CNC(=O)[C@H](Cc2ccccc2)NC(=O)[C@H](CCC(=O)O)NC(=O)[C@H](CCCCN)NC(=O)[C@H](C)NC(=O)[C@H](CO)NC(=O)[C@H](Cc2c[nH]cn2)NC(=O)[C@H](CC(C)C)NC(=O)[C@H](Cc2ccccc2)NC(=O)[C@H](CCCCN)NC(=O)CNC(=O)[C@@H](NC(=O)CN)[C@@H](C)CC)C(=O)N[C@@H](C(C)C)C(=O)NCC(=O)N[C@@H](CCC(=O)O)C(=O)N1)C(=O)N[C@@H](CC(N)=O)C(=O)N[C@@H](CO)C(N)=O [Mag(i + 4)15(K11E), GIGKFLHSAKEFGKAXVGEXBNS] (H-GIGKFLHSAKEFGKA[S5]VGE[S5][Nle]NS-NH2; staple 16-20) | 2.9% | –
2 | 1.6 µg/mL | 3.1 µg/mL | 3.1 µg/mL | 1.6 µg/mL | CC(C)C[C@H](NC(=O)[C@H](Cc1ccc(O)cc1)NC(=O)[C@H](Cc1c[nH]cn1)NC(=O)[C@@H](NC(=O)[C@H](CC(C)C)NC(=O)[C@]1(C)CCCC=CCCC[C@](C)(NC(=O)[C@H](Cc2c[nH]cn2)NC(=O)[C@H](CCCCN)NC(=O)CNC(=O)[C@@H](NC(=O)[C@H](Cc2c[nH]cn2)NC(=O)[C@H](C)NC(=O)[C@H](CCCCN)NC(=O)[C@H](CCCCN)NC(=O)[C@H](CCCCN)NC(=O)[C@]2(C)CCCC=CCCC[C@](C)(NC(=O)CN)C(=O)NCC(=O)N[C@@H](CO)C(=O)N[C@@H](Cc3ccccc3)C(=O)N2)C(C)C)C(=O)NCC(=O)N[C@@H](CCCCN)C(=O)N[C@@H](C)C(=O)N1)[C@@H](C)O)C(N)=O [Pleu(i + 4)1, 15(A9K)] (H-G[S5]GSF[S5]KKKAHVGKH[S5]GKA[S5]LTHYL-NH2; staple 2-6, 16-20; N-terminus assumed) | 16.3% | –
3 | 1.6 µg/mL | 6.2 µg/mL | 12.5 µg/mL | 3.1 µg/mL | CCCC[C@H](NC(=O)[C@]1(C)CCCC=CCCC[C@](C)(NC(=O)[C@H](C)NC(=O)[C@H](CCCCN)NC(=O)CNC(=O)[C@H](Cc2ccccc2)NC(=O)[C@H](CCCCN)NC(=O)[C@H](CCCCN)NC(=O)[C@H](C)NC(=O)[C@H](CO)NC(=O)[C@H](Cc2c[nH]cn2)NC(=O)[C@H](CC(C)C)NC(=O)[C@H](Cc2ccccc2)NC(=O)[C@H](CCCCN)NC(=O)[C@H](CCCCN)NC(=O)[C@@H](NC(=O)CN)[C@@H](C)CC)C(=O)N[C@@H](C(C)C)C(=O)NCC(=O)N[C@@H](CCC(=O)O)C(=O)N1)C(=O)N[C@@H](CC(N)=O)C(=O)N[C@@H](CO)C(N)=O [Mag(i + 4)15(G3K), GIKKFLHSAKKFGKAXVGEXBNS] (H-GIKKFLHSAKKFGKA[S5]VGE[S5][Nle]NS-NH2; staple 16-20) | 3.8% | –
4 | 3.1 µg/mL | 50 µg/mL | >50 µg/mL | 25 µg/mL | CCCC[C@H](NC(=O)[C@]1(C)CCCC=CCCC[C@](C)(NC(=O)[C@H](C)NC(=O)[C@H](CCCCN)NC(=O)[C@@H](CCCCN)NC(=O)[C@H](Cc2ccccc2)NC(=O)[C@H](CCCCN)NC(=O)[C@H](CCCCN)NC(=O)[C@H](C)NC(=O)[C@H](CO)NC(=O)[C@H](Cc2c[nH]cn2)NC(=O)[C@H](CC(C)C)NC(=O)[C@H](Cc2ccccc2)NC(=O)[C@H](CCCCN)NC(=O)CNC(=O)[C@@H](NC(=O)CN)[C@@H](C)CC)C(=O)N[C@@H](C(C)C)C(=O)NCC(=O)N[C@@H](CCC(=O)O)C(=O)N1)C(=O)N[C@@H](CC(N)=O)C(=O)N[C@@H](CO)C(N)=O [Mag(i + 4)15(G13k)] (H-GIGKFLHSAKKF[dK]KA[S5]VGE[S5][Nle]NS-NH2; staple 16-20) | 2.1% | –
5 | 12.5 µg/mL | 12.5 µg/mL | 25 µg/mL | 50 µg/mL | CCCC[C@H](NC(=O)[C@@H](NC(=O)[C@H](CCC(=O)O)NC(=O)CNC(=O)[C@@H](NC(=O)[C@H](Cc1ccccc1)NC(=O)[C@H](C)NC(=O)[C@H](CCCCN)NC(=O)CNC(=O)[C@H](Cc1ccccc1)NC(=O)[C@H](CCCCN)NC(=O)[C@]1(C)CCCC=CCCC[C@](C)(NC(=O)[C@H](Cc2ccccc2)NC(=O)[C@H](CCCCN)NC(=O)CNC(=O)[C@@H](NC(=O)CN)[C@@H](C)CC)C(=O)N[C@@H](Cc2c[nH]cn2)C(=O)N[C@@H](CO)C(=O)N[C@@H](C)C(=O)N1)C(C)C)[C@@H](C)CC)C(=O)N[C@@H](CC(N)=O)C(=O)N[C@@H](CO)C(N)=O [Mag(i + 4)5] (H-GIGKF[S5]HSA[S5]KFGKAFVGEI[Nle]NS-NH2; staple 6-10) | 13.3% | –
6 | 1.6 µg/mL | 6.2 µg/mL | 12.5 µg/mL | 6.2 µg/mL | CCCC[C@H](NC(=O)[C@]1(C)CCCC=CCCC[C@](C)(NC(=O)[C@H](C)NC(=O)[C@H](CCCCN)NC(=O)CNC(=O)[C@H](Cc2ccccc2)NC(=O)[C@H](CCCCN)NC(=O)[C@H](CCCCN)NC(=O)[C@H](C)NC(=O)[C@H](CO)NC(=O)[C@H](Cc2c[nH]cn2)NC(=O)[C@H](CC(C)C)NC(=O)[C@H](Cc2ccccc2)NC(=O)[C@H](CCCCN)NC(=O)CNC(=O)[C@@H](NC(=O)CN)[C@@H](C)CC)C(=O)N[C@@H](C(C)C)C(=O)NCC(=O)N[C@@H](CCC(=O)O)C(=O)N1)C(=O)N[C@@H](CC(N)=O)C(=O)N[C@@H](CO)C(N)=O [Mag(i + 4)15] (H-GIGKFLHSAKKFGKA[S5]VGE[S5][Nle]NS-NH2; staple 16-20) | 11.9% | –
7 | 3.1 µg/mL | 6.2 µg/mL | 3.1 µg/mL | 6.2 µg/mL | CCCC[C@H](NC(=O)[C@@H](NC(=O)[C@H](CCC(=O)O)NC(=O)[C@]1(C)CCCC=CCCCCCC[C@@](C)(NC(=O)[C@H](CCCCN)NC(=O)[C@H](C)NC(=O)[C@H](CO)NC(=O)[C@H](Cc2c[nH]cn2)NC(=O)[C@H](CC(C)C)NC(=O)[C@H](Cc2ccccc2)NC(=O)[C@H](CCCCN)NC(=O)CNC(=O)[C@@H](NC(=O)CN)[C@@H](C)CC)C(=O)N[C@@H](Cc2ccccc2)C(=O)NCC(=O)N[C@@H](CCCCN)C(=O)N[C@@H](C)C(=O)N[C@@H](Cc2ccccc2)C(=O)N[C@@H](C(C)C)C(=O)N1)[C@@H](C)CC)C(=O)N[C@@H](CC(N)=O)C(=O)N[C@@H](CO)C(N)=O [Mag(i + 7)10] (H-GIGKFLHSAK[R8]FGKAFV[S5]EI[Nle]NS-NH2; staple 11-18) | 53.1% | –
8 | 3.1 µg/mL | 12.5 µg/mL | 50 µg/mL | 12.5 µg/mL | CCCC[C@H](NC(=O)[C@]1(C)CCCC=CCCC[C@](C)(NC(=O)[C@H](C)NC(=O)[C@H](CCCCN)NC(=O)CNC(=O)[C@H](Cc2ccccc2)NC(=O)[C@H](CCCCN)NC(=O)[C@H](CCCCN)NC(=O)[C@H](C)NC(=O)[C@H](CO)NC(=O)[C@H](Cc2c[nH]cn2)NC(=O)[C@H](CC(C)C)NC(=O)[C@H](Cc2ccccc2)NC(=O)[C@H](CCCCN)NC(=O)[C@H](CCC(=O)O)NC(=O)[C@@H](NC(=O)CN)[C@@H](C)CC)C(=O)N[C@@H](C(C)C)C(=O)NCC(=O)N[C@@H](CCC(=O)O)C(=O)N1)C(=O)N[C@@H](CC(N)=O)C(=O)N[C@@H](CO)C(N)=O [Mag(i + 4)15(G3E), GIEKFLHSAKKFGKAXVGEXBNS] (H-GIEKFLHSAKKFGKA[S5]VGE[S5][Nle]NS-NH2; staple 16-20) | 3.9% | –
9 | 1.6 µg/mL | 25 µg/mL | 50 µg/mL | 3.1 µg/mL | CCCC[C@H](NC(=O)[C@]1(C)CCCC=CCCC[C@](C)(NC(=O)[C@H](C)NC(=O)[C@H](CCCCN)NC(=O)CNC(=O)[C@H](Cc2ccccc2)NC(=O)[C@H](CCCCN)NC(=O)[C@H](CCCCN)NC(=O)[C@H](CCCCN)NC(=O)[C@H](CO)NC(=O)[C@H](Cc2c[nH]cn2)NC(=O)[C@]2(C)CCCC=CCCC[C@](C)(NC(=O)CN)C(=O)NCC(=O)N[C@@H](CCCCN)C(=O)N[C@@H](Cc3ccccc3)C(=O)N2)C(=O)N[C@@H](C(C)C)C(=O)NCC(=O)N[C@@H](CCC(=O)O)C(=O)N1)C(=O)N[C@@H](CC(N)=O)C(=O)N[C@@H](CO)C(N)=O [Mag(i + 4)1, 15(A9K), GXGKFXHSKKKFGKAXVGEXBNS] (H-G[S5]GKF[S5]HSKKKFGKA[S5]VGE[S5][Nle]NS-NH2; staple 2-6, 16-20) | 2.4% | little hemolytic activity
10 | 12.5 µg/mL | 50 µg/mL | >50 µg/mL | >50 µg/mL | CCCC[C@H](NC(=O)[C@]1(C)CCCC=CCCC[C@](C)(NC(=O)[C@H](C)NC(=O)[C@H](CCC(=O)O)NC(=O)CNC(=O)[C@H](Cc2ccccc2)NC(=O)[C@H](CCCCN)NC(=O)[C@H](CCCCN)NC(=O)[C@H](C)NC(=O)[C@H](CO)NC(=O)[C@H](Cc2c[nH]cn2)NC(=O)[C@H](CC(C)C)NC(=O)[C@H](Cc2ccccc2)NC(=O)[C@H](CCCCN)NC(=O)CNC(=O)[C@@H](NC(=O)CN)[C@@H](C)CC)C(=O)N[C@@H](C(C)C)C(=O)NCC(=O)N[C@@H](CCC(=O)O)C(=O)N1)C(=O)N[C@@H](CC(N)=O)C(=O)N[C@@H](CO)C(N)=O [Mag(i + 4)15(E14E), GIGKFLHSAKKFGEAXVGEXBNS] (H-GIGKFLHSAKKFGEA[S5]VGE[S5][Nle]NS-NH2; staple 16-20) | 3.3% | –
